Experiments:
[1] = Solubility: amount of compound dissolved in PGMEA at 23° C.
Procedure: The amount of the compound dissolved in propylene glycol monomethyl ether acetate (PGMEA) was measured at 23° C., and the results were evaluated according to the following criteria.
Evaluation A: 10% by mass or more
Evaluation B: less than 10% by mass

[2] = Thermogravimetric measurement (TG) of the synthesized compound; format: physicochemical

SMILES: N#COc1ccc(-c2ccc(OC#N)c(C(c3ccc(-c4ccccc4)cc3)c3cc(-c4ccc(OC#N)cc4)ccc3OC#N)c2)cc1 [BiF-CN, bis(4,4′-cyanatobiphenyl) biphenylmethane]
- solubility in PGMEA [1]: ≥ 10 % by mass
- solubility in PGMEA (Evaluation) [1]: A (10% by mass or more)
- 20% thermal weight loss temperature [2]: ≥ 400 °C

SMILES: N#COc1ccc(C(c2ccccc2)c2ccc(OC#N)cc2)cc1 [B-CN, bis(4-cyanatophenyl)phenylmethane]
- solubility in PGMEA [1]: ≥ 10 % by mass
- solubility in PGMEA (Evaluation) [1]: A (10% by mass or more)
- 20% thermal weight loss temperature [2]: ≥ 400 °C

From US10359701B2, “Material for forming underlayer film for lithography, composition for forming underlayer film for lithography, underlayer film for lithography and pattern forming method” (Mitsubishi Gas Chemical Company, Inc., priority 2015, dated 2019)
